Reference: publication PMC6242746 (Chemistry, an Asian journal, 2018)

Experiments:
HeLa cells = experiment: Percentage of peptide remained in HeLa cell lysate; type: in vitro ADME; settings: 200 μM alone or with 100 nM BTZ, 1 h; cell lysate or culture medium
[1] = Self-assembly: hydrogelation and nanofiber formation; type: physicochemical; settings: 500 μM, TEM images

| Degradation in HeLa cells compared with 1 (in words) (HeLa cells) | Nanofiber formation (TEM) [1] | Substance |
| --- | --- | --- |
| degrade slower than 1 | can form nanofibers | Nap-Phe-Phe-Glu [compound 3] |
| degrade slower than 1 | can form nanofibers | Nap-Phe-Phe-Asn [compound 2] |
